# Laboratory results taken from ChEMBL document CHEMBL1687756 (Antimicrob Agents Chemother, 2010).
# Experiments:
# [1] = AUC (0 to infinity) in Beagle dog at 1.25 mg/kg, iv after 2 days; assay type: ADME, organism-based, Canis lupus familiaris; set-up: dose 1.25 mg/kg, route intravenous, time infinity; settings: plasma
# [2] = Cmax in Beagle dog at 5 mg/kg, sc after 184 days; assay type: ADME, organism-based, Canis lupus familiaris; set-up: dose 5 mg/kg, route subcutaneous; settings: in vivo
# [3] = (§1) Plasma concentration in Beagle dog at 5 mg/kg administered intramuscularly after 3 months; assay type: ADME, organism-based, Canis lupus familiaris; set-up: dose 5 mg/kg, route intramuscular; settings: im
# Plasma = test: as §1; assay type: ADME, organism-based, Canis lupus familiaris; set-up: dose 5 mg/kg, route intramuscular; settings: in vivo, im, 2191.5 h, BLD = below limit of detection
# [4] = Drug level in Beagle dog muscle at injected site at 5 mg/kg administered intramuscularly after 6 months; assay type: ADME, organism-based, Canis lupus familiaris, Muscle tissue; set-up: dose 5 mg/kg, route intramuscular; settings: im, read-out: Drug uptake
# [5] = Drug level in Beagle dog skin at injected site at 5 mg/kg administered intramuscularly after 3 months; assay type: ADME, organism-based, Canis lupus familiaris, Zone of skin; set-up: dose 5 mg/kg, route intramuscular; settings: im, read-out: Drug uptake
# [6] = Plasma concentration in male Beagle dog at 200 mg/kg administered intramuscularly after 3 months; assay type: ADME, organism-based, Canis lupus familiaris; set-up: dose 200 mg/kg, route intramuscular; settings: im
# [7] = Drug level in female Beagle dog thymus at 200 mg/kg, sc after 3 months; assay type: ADME, organism-based, Canis lupus familiaris; set-up: dose 200 mg/kg, route subcutaneous; settings: read-out: Drug uptake
# [8] = Drug level in female Beagle dog thymus at 400 mg/kg, sc after 3 months; assay type: ADME, organism-based, Canis lupus familiaris; set-up: dose 400 mg/kg, route subcutaneous; settings: read-out: Drug uptake
# [9] = Ratio of drug level in thymus to plasma in male Beagle dog at 400 mg/kg, sc after 1 month; assay type: ADME, organism-based, Canis lupus familiaris; set-up: dose 400 mg/kg, route subcutaneous
# [10] = Ratio of drug level in thymus to plasma in male Beagle dog at 200 mg/kg administered intramuscularly after 3 months; assay type: ADME, organism-based, Canis lupus familiaris; set-up: dose 200 mg/kg, route intramuscular; settings: im
# [11] = Plasma concentration in Beagle dog at 5 mg/kg, sc after 1 month; assay type: ADME, organism-based, Canis lupus familiaris; set-up: dose 5 mg/kg, route subcutaneous
# [12] = Plasma concentration in Beagle dog at 5 mg/kg, sc after 6 months; assay type: ADME, organism-based, Canis lupus familiaris; set-up: dose 5 mg/kg, route subcutaneous
# [13] = Drug level in Beagle dog liver at 5 mg/kg administered intramuscularly after 3 months; assay type: ADME, organism-based, Canis lupus familiaris; set-up: dose 5 mg/kg, route intramuscular; settings: im, read-out: Drug uptake
# [14] = Ratio of drug level in liver to plasma in Beagle dog at 5 mg/kg, sc after 3 months; assay type: ADME, organism-based, Canis lupus familiaris; set-up: dose 5 mg/kg, route subcutaneous
# [15] = Drug level in Beagle dog lymph node iliac at 5 mg/kg administered intramuscularly after 1 month; assay type: ADME, organism-based, Canis lupus familiaris; set-up: dose 5 mg/kg, route intramuscular; settings: im, read-out: Drug uptake
# [16] = Drug level in Beagle dog lymph node iliac at 5 mg/kg, sc after 6 months; assay type: ADME, organism-based, Canis lupus familiaris; set-up: dose 5 mg/kg, route subcutaneous; settings: read-out: Drug uptake
# [17] = Drug level in Beagle dog lymph node popliteal at 5 mg/kg, sc after 1 month; assay type: ADME, organism-based, Canis lupus familiaris; set-up: dose 5 mg/kg, route subcutaneous; settings: read-out: Drug uptake
# [18] = Ratio of drug level in lymph node popliteal to plasma in Beagle dog at 5 mg/kg, sc after 3 months; assay type: ADME, organism-based, Canis lupus familiaris; set-up: dose 5 mg/kg, route subcutaneous
# [19] = Drug level in Beagle dog lymph node axillar at 5 mg/kg administered intramuscularly after 3 months; assay type: ADME, organism-based, Canis lupus familiaris; set-up: dose 5 mg/kg, route intramuscular; settings: axillary lymph node, im, read-out: Drug uptake
# [20] = Drug level in Beagle dog lymph node axillar at 5 mg/kg, sc after 3 months; assay type: ADME, organism-based, Canis lupus familiaris; set-up: dose 5 mg/kg, route subcutaneous; settings: axillary lymph node, read-out: Drug uptake
# [21] = Drug level in Beagle dog lymph node mandibular at 5 mg/kg, sc after 6 months; assay type: ADME, organism-based, Canis lupus familiaris; set-up: dose 5 mg/kg, route subcutaneous; settings: read-out: Drug uptake
# [22] = Drug level in Beagle dog spleen at 5 mg/kg administered intramuscularly after 3 months; assay type: ADME, organism-based, Canis lupus familiaris; set-up: dose 5 mg/kg, route intramuscular; settings: im, read-out: Drug uptake
# [23] = Drug level in Beagle dog spleen at 5 mg/kg administered intramuscularly after 6 months; assay type: ADME, organism-based, Canis lupus familiaris; set-up: dose 5 mg/kg, route intramuscular; settings: im, read-out: Drug uptake
# [24] = Plasma concentration in male Beagle dog at 200 mg/kg, sc after 1 month; assay type: ADME, organism-based, Canis lupus familiaris; set-up: dose 200 mg/kg, route subcutaneous
# [25] = Plasma concentration in female Beagle dog at 200 mg/kg, sc after 1 month; assay type: ADME, organism-based, Canis lupus familiaris; set-up: dose 200 mg/kg, route subcutaneous; settings: read-out: Drug uptake
# [26] = Plasma concentration in female Beagle dog at 200 mg/kg administered intramuscularly after 1 month; assay type: ADME, organism-based, Canis lupus familiaris; set-up: dose 200 mg/kg, route intramuscular; settings: im, read-out: Drug uptake
# [27] = Drug level in female Beagle dog thymus at 200 mg/kg, sc after 1 month; assay type: ADME, organism-based, Canis lupus familiaris; set-up: dose 200 mg/kg, route subcutaneous; settings: read-out: Drug uptake
# [28] = Ratio of drug level in thymus to plasma in female Beagle dog at 200 mg/kg, sc after 1 month; assay type: ADME, organism-based, Canis lupus familiaris; set-up: dose 200 mg/kg, route subcutaneous
# Canis familiaris = test: Toxicity in Beagle dog assessed as inflammatory signs at 20 mg/kg administered intramuscularly after 3 months; assay type: organism-based, Canis lupus familiaris; set-up: dose 20 mg/kg, route intramuscular; settings: in vivo, im, 2191.5 h
# [29] = Tmax in female dog at 200 mg administered intramuscularly after 85 days; settings: in vivo, im
# [30] = Tmax in female dog at 400 mg administered intramuscularly after 85 days; settings: in vivo, im
# [31] = AUC (0 to last) in male dog at 200 mg administered intramuscularly after 85 days; settings: plasma, im
structure (smiles),measurement,setting,value
Cc1cc(/C=C/C#N)cc(C)c1Nc1ccnc(Nc2ccc(C#N)cc2)n1 [RILPIVIRINE],AUC(0-inf),[1],8660 ng·h/mL
same,Cmax,[2],38 ng/mL
same,concentration at 2191.5 h,[3],< 1 ng/mL
same,Cp,Plasma,BLD
same,concentration at 4383 h,[4],11500 ng/g
same,concentration at 2191.5 h,[5],16.7 ng/g
same,concentration at 2191.5 h,[6],9.2 ng/mL
same,concentration at 2191.5 h,[7],105 ng/g
same,concentration at 2191.5 h,[8],101 ng/g
same,Kp at 730.5 h,[9],2.9
same,Kp at 2191.5 h,[10],3.8
same,concentration at 730.5 h,[11],16.8 ng/mL
same,concentration at 4383 h,[12],1.3 ng/mL
same,concentration at 2191.5 h,[13],20.8 ng/g
same,Kp at 2191.5 h,[14],14
same,concentration at 730.5 h,[15],19000 ng/g
same,concentration at 4383 h,[16],9.9 ng/g
same,concentration at 730.5 h,[17],68.2 ng/g
same,Kp at 2191.5 h,[18],8.2
same,concentration at 2191.5 h,[19],25.5 ng/g
same,concentration at 2191.5 h,[20],22.1 ng/g
same,concentration at 4383 h,[21],7.8 ng/g
same,concentration at 2191.5 h,[22],< 5 ng/g
same,concentration at 4383 h,[23],< 5 ng/g
same,concentration at 730.5 h,[24],95 ng/mL
same,concentration at 730.5 h,[25],71.8 ng/g
same,concentration at 730.5 h,[26],61 ng/g
same,concentration at 730.5 h,[27],536 ng/g
same,Kp at 730.5 h,[28],3.9
same,Activity,Canis familiaris,Non-toxic
same,Tmax,[29],0.55 h
same,Tmax,[30],16 h
same,AUC(0-t) at 2040 h,[31],148000 ng·h/mL
